67 compounds from patent publication EP4111863A1, “PHOSPHORUS USE EFFICIENCY ENHANCERS AS PLANT GROWTH PROMOTORS” (EuroChem Antwerpen, priority 2021, dated 2023) can be followed below.

The structures appear in SMILES notation.

This assay has as its system SPX1. Description: Chemical activity assessment: SPX1 phosphate starvation biomarker, pSPX1::GUS reporter line, GUS stained area. Type of assay: in vivo, Arabidopsis thaliana. The following applies: Table 3; 50 µM compound, low phosphate modMS liquid medium, 7 days after germination; low phosphate control average of the same plate. The procedure: All Arabidopsis plant experiments were performed using the Arabidopsis thaliana Columbia-0 background. The Arabidopsis pSPX1::GUS line is described in the […] 2008, 54: 965-975. For rice, the cultivar Nipponbare was used. For maize, the cultivars DKC 2931 and B104 were used for regular pot experiments and sand-based pot experiments, respectively. For soybean, the cultivar Primus was used. […] The medium was solidified due to the addition of 0,6% Gelrite, unless stated otherwise. In case of vertical plates (root length and root hair measurements), the medium was supplied with 0.5% of sucrose and 1 µM (low phosphate, 1 µM KH2PO4, 9.9 mM KCI), 10 µM (low phosphate 10 µM KH2PO4, 9.9 mM KCI) or 1.25 mM KH2PO4 (high phosphate). Arabidopsis seeds were stratified for 2 days at 4 °C before germination. Seedlings were germinated in climate-controlled growth chambers at 22 °C under continuous light (100 µmol m^-2 s^-1). Husked rice seeds were germinated on wetted Whatman paper for 2 days at 37 °C and then transferred to Sterivent boxes or square Petri dishes with solid medium. Maize and soybean seeds were wetted 24 hours at room temperature prior to sowing in pots.
For the chemical activity assessment 3 to 8 seeds per well of Arabidopsis pSPX1::GUS line were sown in 96-well plates containing 150 µl of low phosphate modMS liquid medium containing 1% of sucrose. Compounds were added in 50 µM concentration, starting from a 5 mM stock of compounds solved in DMSO. Different chemical substances were separately added to different wells. Per plate, 16 control wells were used, 8 containing only the low phosphate medium and 1% DMSO, and 8 containing high phosphate medium and 1% DMSO. 7 days after germination, plates were scanned using a flatbed scanner (EPSON Expression 11000XL) and analyzed for leaf size. After scanning, the growth medium was replaced by GUS staining solution (see Plant Mol. Biol. Rep. 1994, 12: 37-42 for details) and incubated for 1.5 hours at 37 °C. The plates were scanned a second time and analyzed for GUS signal area. Measurements of both leaf area and GUS signal area were conducted by filtering out and measure the green and blue signal, respectively using ImageJ software. If the green leaf area was 50% or less than the control, samples were omitted. Additionally, all results were visually screened for leaf size and GUS signal.
For `Cc1csc(C2CN(Cc3nc(-c4ccccc4)no3)CCO2)n1` (stereo not shown), the “GUS (SPX1) stained area normalized to the number of seeds (pixels)” value (from here on “GUS (SPX1) stained area normalized”) amounted to 0 pixels.

As for `Cc1ccc(C(CN2CCOCC2)NC(=O)c2cc(-c3ccccc3)[nH]n2)cc1` (stereo not shown), the “GUS (SPX1) stained area normalized” value worked out at 0 pixels.

Regarding `CC1CN(CC(=O)Nc2ccccc2Cc2ccccc2)CC(C)O1` (stereo not shown), the “GUS (SPX1) stained area normalized” value was determined as 0 pixels.

As to `CS(=O)(=O)CC1(CN2CCOC(c3ccc(F)cc3)C2)CC1` (stereo not shown), the “GUS (SPX1) stained area normalized” value turned out to be 0 pixels.

For `O=C(O)c1cc(Cl)nc(N2CCOCC2)c1`, the “GUS (SPX1) stained area normalized” value turned out to be 0 pixels.

Turning to `CCC(=O)c1ccc(OC(=O)N2CCOCC2)cc1`, the “GUS (SPX1) stained area normalized” value is listed as 0 pixels.

Consider `CCn1c(Sc2nnnn2-c2ccccc2)nc2cc(S(=O)(=O)N3CCOCC3)ccc21`, for which the “GUS (SPX1) stained area normalized” value amounted to 14 pixels.

Consider `CC1CN(C(=O)c2cc(Cl)c(Cl)n2C)CCO1` (stereo not shown), for which the “GUS (SPX1) stained area normalized” value worked out at 14 pixels.

In the case of `CC(C)C(NC(=O)C12CC3CC(CC(C3)C1)C2)C(=O)N1CCOCC1` (stereo not shown), the “GUS (SPX1) stained area normalized” value amounted to 14 pixels.

As to `O=C(c1cc(-c2ccccc2)nc2c1cnn2Cc1cccc(F)c1)N1CCOCC1`, the “GUS (SPX1) stained area normalized” value was 14 pixels.

Regarding `Cc1ccc(C2CN(Cc3cc(-c4ccco4)on3)CCO2)c(C)c1` (stereo not shown), the “GUS (SPX1) stained area normalized” value is listed as 15 pixels.

On to `Cn1cc(C2CN(Cc3ccc(CSC(F)F)o3)CCO2)cn1` (stereo not shown), for which the “GUS (SPX1) stained area normalized” value is 15 pixels.

`Cc1cc(C)n(CC2CN(CC(=O)N(C)c3nccs3)CCO2)n1` (stereo not shown): the “GUS (SPX1) stained area normalized” value came to 15 pixels.

As for `O=C(CSc1ncnc2sccc12)c1ccc(CC(=O)N2CCOCC2)s1`, the “GUS (SPX1) stained area normalized” value is on record as 15 pixels.

In the case of `O=C(Cn1c(NCCO)nc2ccccc21)N1CCOCC1`, the “GUS (SPX1) stained area normalized” value is 16 pixels.

`CCc1nnc(NC(=O)N2CCOCC2CC(C)C)s1` (stereo not shown): the “GUS (SPX1) stained area normalized” value is on record as 16 pixels.

Take `O=C(c1ccc(-c2cc(Cl)ccc2Cl)o1)N1CCOCC1`: the “GUS (SPX1) stained area normalized” value is reported as 16 pixels.

As for `CC1(C)CN(Cc2ccc(-n3ccnc3)cc2)CCO1`, the “GUS (SPX1) stained area normalized” value is recorded as 16 pixels.

As for `CC1COCCN1C(=O)CCc1nc(-c2cccs2)no1` (stereo not shown), the “GUS (SPX1) stained area normalized” value is 17 pixels.

Take `Cn1c(Cl)cnc1CN1CCOC(c2ccc(Cl)cc2)C1` (stereo not shown): the “GUS (SPX1) stained area normalized” value is given as 17 pixels.

Consider `Cc1cc(C)c(C)c(OC(=O)N2CCOCC2)c1`, for which the “GUS (SPX1) stained area normalized” value is 17 pixels.

Turning to `NC(=O)C1CN(c2ncc(Br)cn2)CCO1` (stereo not shown), the “GUS (SPX1) stained area normalized” value turned out to be 17 pixels.

Regarding `Cc1cc(I)ccc1NC(=O)CN1CCOC(C)C1` (stereo not shown), the “GUS (SPX1) stained area normalized” value was 17 pixels.

As for `CC(=O)Nc1ccc(Sc2cc(C(=O)N3CCOCC3)c3ccccc3n2)cc1`, the “GUS (SPX1) stained area normalized” value was 18 pixels.

Consider `O=S(=O)(N1CCOCC1)N1CCN(Cc2noc(-c3ccc(F)cc3)n2)CC1`, for which the “GUS (SPX1) stained area normalized” value is on record as 19 pixels.

As to `Cc1cccn2c(=O)cc(CN3CCOC(c4ccc(F)cc4)C3)nc12` (stereo not shown), the “GUS (SPX1) stained area normalized” value is 19 pixels.

Take `CC1CN(C(=O)c2cnn(C)c2C(F)(F)F)CC(C)O1` (stereo not shown): the “GUS (SPX1) stained area normalized” value came out at 19 pixels.

Take `COc1cccc(-c2nnn(-c3nc(CN4CCOCC4)nc4sc5c(c34)CCCC5)n2)c1`: the “GUS (SPX1) stained area normalized” value was found to be 20 pixels.

In the case of `CCCCn1c(N)c(C(=O)NCCN2CCOCC2)c2nc3ccccc3nc21`, the “GUS (SPX1) stained area normalized” value was 20 pixels.

On to `O=C(COc1ccc(Cl)cc1)Nc1ccccc1C(=O)N1CCOCC1`, for which the “GUS (SPX1) stained area normalized” value is 20 pixels.

On to `CC(=O)Nc1nc(CN2CC(C)OC(c3ccsc3)C2)cs1` (stereo not shown), for which the “GUS (SPX1) stained area normalized” value came out at 20 pixels.

Turning to `Cc1nnc(NC(=O)N2CC(C)OC(c3ccsc3)C2)s1` (stereo not shown), the “GUS (SPX1) stained area normalized” value is recorded as 20 pixels.

`Cc1ccc2cccc(OC(=O)N3CCOCC3)c2n1`: the “GUS (SPX1) stained area normalized” value is given as 21 pixels.

Consider `Brc1cc(CN2CCOC(Cn3cccn3)C2)cs1` (stereo not shown), for which the “GUS (SPX1) stained area normalized” value was 21 pixels.

Take `CC(C)c1nc(C2COCCN2c2ccnc(-c3ccccc3)n2)no1` (stereo not shown): the “GUS (SPX1) stained area normalized” value worked out at 21 pixels.

Turning to `CC1CN(CC(=O)Nc2ccccc2C(=O)NC2CCCC2)CC(C)O1` (stereo not shown), the “GUS (SPX1) stained area normalized” value came to 21 pixels.

With `CCC1COCCN1C(=O)Nc1nnc(C(F)(F)F)s1` (stereo not shown), the “GUS (SPX1) stained area normalized” value worked out at 21 pixels.

With `O=C(Cc1c[nH]c2cc(Cl)ccc12)N1CCOCC1c1ncon1` (stereo not shown), the “GUS (SPX1) stained area normalized” value is 22 pixels.

For `Fc1ccc(-c2nnc(SCc3ccc4ccccc4n3)n2CCN2CCOCC2)cc1`, the “GUS (SPX1) stained area normalized” value turned out to be 22 pixels.

Consider `CC1CN(C(=O)Nc2cc(C(C)C)on2)CC(c2ccsc2)O1` (stereo not shown), for which the “GUS (SPX1) stained area normalized” value came to 23 pixels.

In the case of `CCC1CN(C(=O)CCc2nc(-c3cccs3)no2)CCO1` (stereo not shown), the “GUS (SPX1) stained area normalized” value is reported as 23 pixels.

In the case of `c1ccc(OCCNCCN2CCOCC2)cc1`, the “GUS (SPX1) stained area normalized” value came to 23 pixels.

On to `O=C(Nc1ccc(F)cn1)N1CCOC(c2nccs2)C1` (stereo not shown), for which the “GUS (SPX1) stained area normalized” value came out at 24 pixels.

Regarding `COC(=O)c1ccc(N2CCOC(c3ccc(C)o3)C2)nc1C` (stereo not shown), the “GUS (SPX1) stained area normalized” value worked out at 24 pixels.

`Cc1cccc(N2CCOC3(CCCC3)C2)n1`: the “GUS (SPX1) stained area normalized” value amounted to 25 pixels.

For the compound `CC(Nc1cnn(CCN2CCOCC2)c1)c1nccs1` (stereo not shown), the “GUS (SPX1) stained area normalized” value is 25 pixels.

As for `Cc1ccc(C2COCCN2C(=O)Nc2nnc(C(F)F)s2)o1` (stereo not shown), the “GUS (SPX1) stained area normalized” value amounted to 26 pixels.

`Cc1nc2c(cc(Oc3ccc(S(=O)(=O)N4CCOCC4)cn3)c3ccsc32)s1`: the “GUS (SPX1) stained area normalized” value stood at 26 pixels.

For the compound `Cc1cccc(-n2c(SCC3COc4ccccc4O3)nnc2N2CCOCC2)c1` (stereo not shown), the “GUS (SPX1) stained area normalized” value is recorded as 26 pixels.

Consider `Fc1cc(C2CNCCO2)c(Cl)cc1Cl` (stereo not shown), for which the “GUS (SPX1) stained area normalized” value was determined as 27 pixels.

Turning to `Cc1nc2c(c(C)nn2C)c(C)c1CCC(=O)N1CC(C)OC(C)C1` (stereo not shown), the “GUS (SPX1) stained area normalized” value is given as 27 pixels.

On to `CCc1ccnc(C(=O)Nc2cnccc2N2CCOCC2)c1`, for which the “GUS (SPX1) stained area normalized” value is 27 pixels.

For `O=C(NC1CCSc2ccc(Cl)cc21)c1ccc(N2CCOCC2)c([N+](=O)[O-])c1` (stereo not shown), the “GUS (SPX1) stained area normalized” value worked out at 27 pixels.

Regarding `CC1(C)C(NC(=O)Nc2cc(Cl)ccc2N2CCOCC2)C2CCOC21` (stereo not shown), the “GUS (SPX1) stained area normalized” value came out at 28 pixels.

Regarding `O=C(CCc1ccccc1)Nc1c(C(=O)N2CCOCC2)oc2ccccc12`, the “GUS (SPX1) stained area normalized” value is 28 pixels.

In the case of `O=C1c2cccc3cccc(c23)C(=O)N1CCN1CCOCC1`, the “GUS (SPX1) stained area normalized” value came out at 29 pixels.

`O=C(C1CN(C(=O)C(c2ccccc2)c2ccccc2)c2ccccc2O1)N1CCOCC1` (stereo not shown): the “GUS (SPX1) stained area normalized” value is on record as 30 pixels.

On to `O=S(=O)(c1ccc(Sc2nnc(-c3ccccc3)c3ccccc23)nc1)N1CCOCC1`, for which the “GUS (SPX1) stained area normalized” value is on record as 31 pixels.

With `CC1(C)CN(C(=O)c2csc(-c3ccsc3)n2)CCO1`, the “GUS (SPX1) stained area normalized” value is 31 pixels.

With `COc1ccc(-c2nnc(SCC(=O)N3CCOCC3)o2)cc1OC`, the “GUS (SPX1) stained area normalized” value is given as 32 pixels.

With `Cc1nc(C(C)(C)NCC(=O)N2CC(C)OC(C)C2)sc1C` (stereo not shown), the “GUS (SPX1) stained area normalized” value is listed as 34 pixels.

Regarding `O=C(C1CN(C(=O)CSc2nc3ccccc3o2)c2ccccc2O1)N1CCOCC1` (stereo not shown), the “GUS (SPX1) stained area normalized” value was found to be 34 pixels.

On to `OC(COc1cccc2ccccc12)CN1CCOC2CCCCC21` (stereo not shown), for which the “GUS (SPX1) stained area normalized” value turned out to be 34 pixels.

As to `Cc1nc(Cl)cc(N2CCOCC2c2c(C)nn(C)c2C)n1` (stereo not shown), the “GUS (SPX1) stained area normalized” value is listed as 35 pixels.

For the compound `C1CCC(Sc2nnc(N3CCOCC3)s2)C1`, the “GUS (SPX1) stained area normalized” value came out at 35 pixels.

As for `N#Cc1c(F)cccc1Sc1nnc(N2CCOCC2)s1`, the “GUS (SPX1) stained area normalized” value was 35 pixels.

For `Cc1nn(C)c(C)c1C1CCCN1CC(O)CN1CCOCC1` (stereo not shown), the “GUS (SPX1) stained area normalized” value worked out at 37 pixels.
